EP0117578A2, “Azole-substituted alcohol derivatives” (SHIONOGI & CO., LTD., priority 1983, dated 1984)
≈ marks a conversion by molar mass, not a printed value.

Tests used:
Trichophyton asteroides = assay: in vitro antifungal test, minimum inhibitory concentration (MIC); type: cell-based; settings: Sabouraud's dextrose broth
Text: Sabouraud's dextrose broth was used as a culture medium.

[1] = test system: cucurbit powdery mildew (Sphaerotheca fuliginea); assay: Control of powdery mildew in cucumber; type: in vivo; design: key: O: Disease sign was detected for nearly 100 % area in the inoculated leaf surface; 3: Disease sign was detected for about 50 % area; 5: Disease sign was detected for about 30 % area; 7: Disease sign was detected for about 20 % area; 9: Disease sign was slightly detected; 10: No disease sign was detected; settings: degree of mildew infection 10 days after inoculation; for Foliar spray (125 ppm) Supprension: sprayed at 125 ppm 2 days after inoculation; for Foliar spray (125 ppm) Prevention: sprayed at 125 ppm before inoculation; for Soil application (10 ppm) Prevention: 10 ml at 10 ppm applied to the soil before inoculation
Method: Three ml of preparation containing a test compound at a concentration of 125 ppm was sprayed foliarly to the first leaf of young cucumber plant (cultivar: Matsukaze) which was grown in 9 cm pot in a glasshouse. Similar preparation in 10 ml with the test compound at a concentration of 10 ppm was applied directly to the soil in another pot with cucumber. These plants were inoculated subsequently with conidia suspension of cucurbit powdery mildew (Sphaerotheca fuliginea) and kept in a glasshouse at the temperature of 25 ± 2 °C. Yet in another experiment cucumber in pot was inoculated first with conidia of Sphaerotheca fuliginea and after 2 days the test compound was sprayed foliarly as above to examine its suppressive ability against development of the disease. For all these cucumber plants were observed 10 days after each inoculation and degrees of mildew infection were given as follows: • O : Disease sign was detected for nearly 100 % area in the inoculated leaf surface • 3 : Disease sign was detected for about 50 % area • 5 : Disease sign was detected for about 30 % area • 7 : Disease sign was detected for about 20 % area • 9 : Disease sign was slightly detected • 10: No disease sign was detected

Candida albicans KE-2 [2] = assay: Inhibition test against the formation of the pseudohyphae of Candida albicans; type: cell-based; settings: KE2; Candida albicans KE-2, 1 x 10^6 cells/ml; Eagle's MEM with 20 % bovine serum; 37°C, 18 hours; two-fold dilution; read-out: Inhibitory Concentration against Pseudohyphae Formation
Method: [Inhibition test against the formation of the pseudohyphae of Candida albicans] To an Eagle's MEM medium (Nissan 2; Nissui Pharmaceutical Co., Ltd.) was added 20 % bovine serum, onto which yeast cells of Candida albicans KE-2 were inoculated so that the terminal inoculum size would amount to 1 x 10^6 cells/ml. Then, a test compound was added to the medium by a two-fold dilution method, and cultivation was performed at 37°C for 18 hours. After termination of the cultivation, the cells of serial dilution on each medium were smeared and fixed on an object glass, then stained by the Giemsa's staining method, and the occurrence of the pseudohyphae was observed by microscopy. Minimum concentration for inhibiting the formation of the pseudohyphae was regarded as Inhibitory Concentration against Pseudohyphae Formation.

[3] = test system: dumping-off pathogen, Rhizoctonia solani; assay: Control of dumping-off in cucumber seedlings; type: in vivo; settings: cucumber seeds, 14 days after sowing; for Disease degree (%): 30 ml at 500 ppm applied to the soil, 30 ± 2 °C; for Control (%): 500 ppm applied to the soil, calculated from disease degree
Method: Twenty seeds of cucumber (cultivar: Matsukaze) were sown in 150 g of sterilized soil in 9 cm pot. The soil surface was covered with 15 g of inoculum which contained a dumping-off pathogen, Rhizoctonia solani precultured in a mixture of wheat bran and sterilized soil. Then 30 ml of preparation with a test compound at a concentration of 500 ppm was applied to the soil and the pot was kept at 30 ± 2 °C in a humid chamber.

Candida albicans KE-2 [4] = assay: Therapeutic effect against experimental candidiasis in mice; type: in vivo; settings: female Jcl-ICR mice infected intravenously; 50 mg/kg orally twice a day for 5 days; survival at the 15th day
Method: [Therapeutic effect against experimental candidiasis in mice] Candida albicans KE-2 was cultivated in a Sabouraud's dextrose agar at 28°C for 48 hours, and the resulting culture was suspended in the Sabouraud's dextrose broth. The cells (5 x 105) were administered intravenously at the tail of female Jcl-ICR mice (4 weeks age, body weight 18 - 20 g). The test compound suspended in 2 % gum-arabic was orally administered at a dose of 50 mg/kg twice a day for 5 days: on the first day, the test compound was administered twice i.e. immediately after the infection and 2 hours later; on the second day or later, 24 hours after the administration of the previous day respectively. An infected group to which no test compound was administered was regarded as a control group. Eight mice were employed per group in the control group and the test groups to which the test compound was administered. Therapeutic effect was evaluated on the survival rate at the 15th day since the day of infection; the result is shown below.

[5] = test system: sheath blight fungus (Rhizoctonia solani); assay: Control of sheath blight in rice; type: in vivo; settings: rice sprayed foliarly at 500 ppm, 5 days
Method: Rice (cultivar: Aichi-asahi) was grown in pots in a glasshouse for about 3 months and the plant in each pot was sprayed foliarly with 5 ml of preparation containing a test compound at a concentration of 500 ppm. Then the rice was inoculated at the stem near the soil with sheath blight fungus (Rhizoctonia solani) which was previously cultured in rice husks. The inoculated plant was placed in a humid (r.h. 97 %) chamber at 28°C for 5 days.

[6] = test system: cucumber downy mildew (Pseudoperonospora cubensis); assay: Control of cucumber downy mildew; type: in vivo; settings: cucumber leaf sprayed at 125 ppm, 10 days
Method: The first leaf of young cucumber plant (cultivar : Matsukaze) grown in pot was sprayed with 3 ml of preparation containing a test compound at a concentration of 125 ppm. Five small droplets of suspension of sporangia of cucumber downy mildew (Pseudoperonospora cubensis) were applied to the leaf surface and the pot was kept at 22 ± 2°C under humid condition for 10 days. Then disease degree of downy mildew symptom developed was determined by the following method : [formula] • where, a : Number of inoculations showing typical disease symptom • b : Number of inoculations at which chlorosis was developed • c : Number of inoculations at which chlorosis was slightly developed • d : Number of inoculations at which no disease symptoms were developed Disease degree in Disease degree in [formula]

For `O=C(c1ccc(Cl)cc1Cl)C(O)(Cn1ccnc1)c1ccc(Cl)cc1Cl` (centres unmarked) [Compound No. 1, 2',4'-dichloro-2-(2,4-dichlorophenyl)-2-hydroxy-3-(1H-imidazol-1-yl)propiophenone], the MIC (Trichophyton asteroides) was 0.1 µg/mL (≈ 0.232 µM), the “Foliar spray (125 ppm) Supprension” value [1] was 10 and the “Foliar spray (125 ppm) Prevention” value [1] was 10.

`O=C(c1ccc(Cl)cc1Cl)C(O)(Cn1cncn1)c1ccc(Cl)cc1Cl` (centres unmarked) [compound 6] showed an MIC (Trichophyton asteroides) of 0.1 µg/mL (≈ 0.232 µM) and a minimal effective concentration (Candida albicans KE-2 [2]) of 0.16 µg/mL.

In the case of `COc1ccc(C(=O)C(O)(Cn2cncn2)c2ccc(OC)cc2)cc1` (centres unmarked) [compound 7], the MIC (Trichophyton asteroides) is reported as 12.5 µg/mL (≈ 35.4 µM).

With `O=C(c1ccc(F)cc1)C(O)(Cn1cncn1)c1ccc(Cl)cc1Cl` (centres unmarked) [compound 8] the minimal effective concentration (Candida albicans KE-2 [2]) was 1.25 µg/mL, the “Disease degree (%)” value [3] was 5% and the “Control (%)” value [3] was 95%.

With `Cc1ccc(C(=O)C(O)(Cn2cncn2)c2ccc(C)cc2)cc1` (centres unmarked) [compound 9] the MIC (Trichophyton asteroides) was 1.56 µg/mL (≈ 4.85 µM).

For `O=C(c1ccccc1Cl)C(O)(Cn1cncn1)c1ccccc1Cl` (centres unmarked) [compound 10], the MIC (Trichophyton asteroides) was 0.1 µg/mL (≈ 0.276 µM), the minimal effective concentration (Candida albicans KE-2 [2]) was 0.08 µg/mL and the “Disease degree (%)” value [3] was 8%. The “Control (%)” value [3] was 92%.

`O=C(c1cccc(Cl)c1)C(O)(Cn1cncn1)c1cccc(Cl)c1` (centres unmarked) [compound 11] gave an MIC (Trichophyton asteroides) of 3.13 µg/mL (≈ 8.64 µM).

With `O=C(c1ccc(F)cc1)C(O)(Cn1cncn1)c1ccccc1Cl` (centres unmarked) [compound 19] the “Survival Rate” value (Candida albicans KE-2 [4]) was 100%.

For `CCCCC(=O)C(O)(Cn1cncn1)c1ccc(Cl)cc1Cl` (centres unmarked) [compound 23], the MIC (Trichophyton asteroides) was 0.1 µg/mL (≈ 0.292 µM).

With `CCCC(=O)C(O)(Cn1cncn1)c1ccc(Cl)cc1Cl` (centres unmarked) [compound 25] the MIC (Trichophyton asteroides) was 0.1 µg/mL (≈ 0.305 µM), the minimal effective concentration (Candida albicans KE-2 [2]) was 0.04 µg/mL and the “Soil application (10 ppm) Prevention” value [1] was 10. The “Foliar spray (125 ppm) Supprension” value [1] was 10, the “Foliar spray (125 ppm) Prevention” value [1] was 10 and the “Growth of mycelia (mm)” value ([5]; 28°C, r.h. 97 %) was 20 mm. The “Suppression (%)” value ([5]; calculated from growth of mycelia) was 90%.

For `CCC(C)C(=O)C(O)(Cn1cncn1)c1ccc(Cl)cc1Cl` (centres unmarked) [compound 28], the minimal effective concentration (Candida albicans KE-2 [2]) was 0.02 µg/mL.

`CCCC(=O)C(O)(Cn1cncn1)c1ccccc1Cl` (centres unmarked) [compound 32] was tested, and the MIC (Trichophyton asteroides) was 0.8 µg/mL (≈ 2.72 µM), the minimal effective concentration (Candida albicans KE-2 [2]) was 0.04 µg/mL and the “Soil application (10 ppm) Prevention” value [1] was 10. For the same molecule, the “Foliar spray (125 ppm) Supprension” value [1] was 10 and the “Foliar spray (125 ppm) Prevention” value [1] was 10.

For `CCC(C)C(=O)C(O)(Cn1cncn1)c1ccc(Cl)cc1` (centres unmarked) [compound 34], the MIC (Trichophyton asteroides) was 0.1 µg/mL (≈ 0.325 µM).

For `O=C(c1ccccc1F)C(O)(Cn1cncn1)c1ccc(Cl)cc1Cl` (centres unmarked) [compound 46], the “Survival Rate” value (Candida albicans KE-2 [4]) was 87.5%, the “Soil application (10 ppm) Prevention” value [1] was 5 (Disease sign was detected for about 30 % area) and the “Foliar spray (125 ppm) Supprension” value [1] was 10. For the same molecule, the “Foliar spray (125 ppm) Prevention” value [1] was 10, the “Disease degree (%)” value ([6]; 22 ± 2°C, humid) was 20% and the “Control (%)” value ([6]; calculated from disease degree) was 80%. For the same molecule, the “Disease degree (%)” value [3] was 0% and the “Control (%)” value [3] was 100%.

In the case of `OC(c1ccc(Cl)cc1Cl)C(O)(Cn1cncn1)c1ccc(Cl)cc1Cl` (centres unmarked) [compound 63, 1,2-bis(2,4-dichlorophenyl)-3-(1H-1,2,4-triazol-1-yl)-propylene glyco], the MIC (Trichophyton asteroides) is reported as 0.1 µg/mL (≈ 0.231 µM), the minimal effective concentration (Candida albicans KE-2 [2]) is reported as 0.08 µg/mL and the “Survival Rate” value (Candida albicans KE-2 [4]) is reported as 75%.

In the case of `OC(c1ccc(F)cc1)C(O)(Cn1cncn1)c1ccc(Cl)cc1Cl` (centres unmarked) [compound 67], the MIC (Trichophyton asteroides) is reported as 0.1 µg/mL (≈ 0.262 µM), the minimal effective concentration (Candida albicans KE-2 [2]) is reported as 0.08 µg/mL and the “Survival Rate” value (Candida albicans KE-2 [4]) is reported as 100%.

Molecule `OC(c1ccccc1Cl)C(O)(Cn1cncn1)c1ccccc1Cl` (centres unmarked) [compound 69] has an MIC (Trichophyton asteroides) of 0.1 µg/mL (≈ 0.275 µM) and a minimal effective concentration (Candida albicans KE-2 [2]) of 0.08 µg/mL.

With `OC(c1ccc(F)cc1)C(O)(Cn1cncn1)c1ccc(F)cc1` (centres unmarked) [compound 71] the MIC (Trichophyton asteroides) was 1.56 µg/mL (≈ 4.71 µM), the “Soil application (10 ppm) Prevention” value [1] was 10 and the “Foliar spray (125 ppm) Supprension” value [1] was 10. The “Foliar spray (125 ppm) Prevention” value [1] was 10.

Work on `OC(c1ccc(Cl)cc1Cl)C(O)(Cn1cncn1)c1ccc(F)cc1` (centres unmarked) [compound 78] yielded a minimal effective concentration (Candida albicans KE-2 [2]) of 0.31 µg/mL.

In the case of `CCCC(O)C(O)(Cn1cncn1)c1ccc(Cl)cc1` (centres unmarked) [compound 80], the MIC (Trichophyton asteroides) is reported as 1.6 µg/mL (≈ 5.41 µM).
